In patent US20070015729A1, “Conjugate of cyclodextrin and poly(oxyethylene), and process for preparation thereof” (priority 2005, published 2007):

Assay: TGA (thermogravimetric analysis) of thermal stability
Conditions: FIG. 3, ranking among the three compounds

## OC[C@H]1O[C@@H]2O[C@H]3[C@H](O)[C@@H](O)[C@@H](O[C@H]4[C@H](O)[C@@H](O)[C@@H](O[C@H]5[C@H](O)[C@@H](O)[C@@H](O[C@H]6[C@H](O)[C@@H](O)[C@@H](O[C@H]7[C@H](O)[C@@H](O)[C@@H](O[C@H]8[C@H](O)[C@@H](O)[C@@H](O[C@H]1[C@H](O)[C@H]2O)O[C@@H]8CO)O[C@@H]7CO)O[C@@H]6CO)O[C@@H]5CO)O[C@@H]4CO)O[C@@H]3CO [β-CD, β-cyclodextrin]
  thermal stability: highest
